The text below walks through data of ChEMBL document CHEMBL5338719, “Recent advance on pleiotropic cholinesterase inhibitors bearing amyloid modulation efficacy” (Eur J Med Chem, 2022).

Test [1] deals with T1, Amyloid-beta precursor protein (Homo sapiens, UniProt P05067). Nature of the test: Inhibition of amyloid beta 1 to 42 (unknown origin) self induced aggregation at 25 uM by ThT fluorescence assay relative to control.
For test [2], the target named is T2, Acetylcholinesterase (Rattus norvegicus, UniProt P37136).
T2 sequence (P37136 whole entry): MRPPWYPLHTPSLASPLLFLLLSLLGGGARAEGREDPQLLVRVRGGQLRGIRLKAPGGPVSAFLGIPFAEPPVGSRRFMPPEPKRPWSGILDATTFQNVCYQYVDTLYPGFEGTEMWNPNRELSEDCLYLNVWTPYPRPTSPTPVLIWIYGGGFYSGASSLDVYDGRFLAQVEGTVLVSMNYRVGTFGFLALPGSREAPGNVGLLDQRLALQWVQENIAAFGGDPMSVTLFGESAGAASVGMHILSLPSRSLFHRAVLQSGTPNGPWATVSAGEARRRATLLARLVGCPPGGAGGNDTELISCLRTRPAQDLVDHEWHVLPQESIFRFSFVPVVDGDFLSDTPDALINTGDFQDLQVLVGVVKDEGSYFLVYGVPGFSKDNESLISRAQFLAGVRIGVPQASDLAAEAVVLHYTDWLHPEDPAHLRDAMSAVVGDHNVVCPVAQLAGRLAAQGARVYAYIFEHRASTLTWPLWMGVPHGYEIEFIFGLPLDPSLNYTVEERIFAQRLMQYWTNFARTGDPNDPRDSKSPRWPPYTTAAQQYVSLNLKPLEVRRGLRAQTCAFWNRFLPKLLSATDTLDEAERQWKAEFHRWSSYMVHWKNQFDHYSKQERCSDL
Nature of the test: Inhibition of rat cortex homogenate AChE by Ellman's method. It is filed as tissue-based. (DTNB colorimetry detects thiols as they appear.)

In test [3] the target is T3, Cholinesterase (Homo sapiens, UniProt P06276). Nature of the test: Inhibition of human BChE.
T3 sequence (P06276 whole entry): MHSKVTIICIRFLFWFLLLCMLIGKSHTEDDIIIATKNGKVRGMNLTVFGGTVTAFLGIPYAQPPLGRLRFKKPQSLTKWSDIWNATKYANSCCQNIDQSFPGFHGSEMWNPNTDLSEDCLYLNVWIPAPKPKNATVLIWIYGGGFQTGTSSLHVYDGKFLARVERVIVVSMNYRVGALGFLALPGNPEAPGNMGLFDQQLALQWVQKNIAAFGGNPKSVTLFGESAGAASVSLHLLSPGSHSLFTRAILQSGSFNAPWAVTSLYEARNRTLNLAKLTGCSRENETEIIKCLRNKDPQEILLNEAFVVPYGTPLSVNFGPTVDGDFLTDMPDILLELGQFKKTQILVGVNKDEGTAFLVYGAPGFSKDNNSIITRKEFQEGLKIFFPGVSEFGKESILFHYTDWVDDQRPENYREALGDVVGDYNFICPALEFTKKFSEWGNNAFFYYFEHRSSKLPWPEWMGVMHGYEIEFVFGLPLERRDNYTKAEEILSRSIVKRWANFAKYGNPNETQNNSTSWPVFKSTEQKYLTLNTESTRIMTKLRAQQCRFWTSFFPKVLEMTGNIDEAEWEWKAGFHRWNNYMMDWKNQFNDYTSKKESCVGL
Test [4] addresses T4, Beta-secretase 1 (Homo sapiens, UniProt P56817). Nature of the test: Inhibition of BACE1 (unknown origin).
In test [5] the target is T4, Beta-secretase 1. The test can be described thus: Inhibition of BACE1 (unknown origin) expressed in purified baculovirus using RhEVNLDAEFK-Quencher as substrate incubated at 50 uM for 90 mins in dark relative to control.
The target of test [6] is T5, Cholinesterase (Equus caballus, UniProt P81908). Nature of the test: Inhibition of equine BChE incubated for 15 mins by Ellman's method.
T5 sequence (P81908 whole entry): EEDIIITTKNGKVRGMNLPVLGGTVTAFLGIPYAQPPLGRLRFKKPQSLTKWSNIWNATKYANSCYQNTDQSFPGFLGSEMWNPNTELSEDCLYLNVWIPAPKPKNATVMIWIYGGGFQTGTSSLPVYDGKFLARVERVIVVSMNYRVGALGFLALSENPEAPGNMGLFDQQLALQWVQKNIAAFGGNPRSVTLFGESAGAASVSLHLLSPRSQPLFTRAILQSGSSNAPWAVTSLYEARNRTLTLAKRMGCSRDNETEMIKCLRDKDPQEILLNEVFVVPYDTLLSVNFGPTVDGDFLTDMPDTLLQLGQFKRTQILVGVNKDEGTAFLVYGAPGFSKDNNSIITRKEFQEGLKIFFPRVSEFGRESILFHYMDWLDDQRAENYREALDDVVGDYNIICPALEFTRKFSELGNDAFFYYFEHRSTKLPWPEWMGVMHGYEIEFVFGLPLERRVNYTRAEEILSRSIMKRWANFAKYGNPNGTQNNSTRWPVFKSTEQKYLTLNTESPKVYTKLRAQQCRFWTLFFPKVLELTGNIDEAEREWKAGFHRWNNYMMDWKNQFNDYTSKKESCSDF
The target of test [7] is Acetylcholinesterase (Electrophorus electricus, UniProt O42275). Nature of the test: Inhibition of electric eel AChE incubated for 15 mins by Ellman's method.
Sequence of Acetylcholinesterase (Electrophorus electricus, UniProt O42275) (O42275 whole entry): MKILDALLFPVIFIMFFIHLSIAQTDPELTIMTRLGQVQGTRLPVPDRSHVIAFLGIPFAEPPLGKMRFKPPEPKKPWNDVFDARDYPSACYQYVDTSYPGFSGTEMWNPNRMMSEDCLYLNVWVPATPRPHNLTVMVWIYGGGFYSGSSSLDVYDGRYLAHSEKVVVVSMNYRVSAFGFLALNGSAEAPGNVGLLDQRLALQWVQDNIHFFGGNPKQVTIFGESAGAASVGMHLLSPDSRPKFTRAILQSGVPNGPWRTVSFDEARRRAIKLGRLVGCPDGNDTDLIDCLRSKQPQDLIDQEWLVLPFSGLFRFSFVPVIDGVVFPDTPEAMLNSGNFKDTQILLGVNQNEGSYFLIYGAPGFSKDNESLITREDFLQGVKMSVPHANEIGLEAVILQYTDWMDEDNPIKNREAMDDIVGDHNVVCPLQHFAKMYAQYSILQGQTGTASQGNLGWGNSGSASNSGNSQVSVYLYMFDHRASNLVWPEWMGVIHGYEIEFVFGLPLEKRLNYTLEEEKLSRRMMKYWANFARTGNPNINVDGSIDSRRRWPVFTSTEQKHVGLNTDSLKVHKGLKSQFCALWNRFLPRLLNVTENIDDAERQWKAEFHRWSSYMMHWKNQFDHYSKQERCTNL
The target of test [8] is T1, Amyloid-beta precursor protein. Nature of the test: Inhibition of amyloid beta 42 (unknown origin) aggregation at 10 uM for 24 hrs by ThT fluorescence assay relative to control.
For test [9] the target is unchanged. Nature of the test: Inhibition of amyloid beta 1 to 42 (unknown origin) aggregation at 50 uM measured every 10 mins for 72 hrs by ThT fluorometric assay relative to control.
Test [10] concerns the target Microtubule-associated protein tau (Homo sapiens) (UniProt P10636). Nature of the test: Inhibition of tau (306 to 336 residue) (unknown origin) aggregation at 50 uM incubated overnight by ThT fluorometric assay relative to control.
In test [11] the target is T6, Acetylcholinesterase (Homo sapiens, UniProt P22303). The test can be described thus: Inhibition of human AChE.
T6 sequence (P22303 whole entry): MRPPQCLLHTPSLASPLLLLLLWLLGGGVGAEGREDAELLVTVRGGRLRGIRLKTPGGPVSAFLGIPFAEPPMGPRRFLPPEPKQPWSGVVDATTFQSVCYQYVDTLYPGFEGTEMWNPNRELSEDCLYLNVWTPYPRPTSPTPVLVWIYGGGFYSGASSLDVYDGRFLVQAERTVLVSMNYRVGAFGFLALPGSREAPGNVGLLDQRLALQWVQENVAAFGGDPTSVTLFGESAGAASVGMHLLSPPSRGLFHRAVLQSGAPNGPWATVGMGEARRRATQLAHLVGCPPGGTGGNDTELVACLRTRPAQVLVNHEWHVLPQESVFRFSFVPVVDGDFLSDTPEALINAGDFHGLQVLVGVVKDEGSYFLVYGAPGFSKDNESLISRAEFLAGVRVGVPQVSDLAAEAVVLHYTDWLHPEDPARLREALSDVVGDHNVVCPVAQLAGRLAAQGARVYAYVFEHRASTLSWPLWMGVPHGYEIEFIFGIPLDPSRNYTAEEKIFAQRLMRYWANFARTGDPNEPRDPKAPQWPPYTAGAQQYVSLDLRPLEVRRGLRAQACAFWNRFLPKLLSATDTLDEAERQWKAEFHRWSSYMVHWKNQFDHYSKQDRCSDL
Test [12] deals with T1, Amyloid-beta precursor protein. The test can be described thus: Inhibition of amyloid beta 42 (unknown origin) aggregation at 25 uM relative to control.
For test [13] the target is unchanged. Nature of the test: Inhibition of amyloid beta 42 (unknown origin) aggregation at 100 uM relative to control.
For test [14] the target is unchanged. Nature of the test: Inhibition of amyloid beta 42 (unknown origin) aggregation at 80 uM relative to control.
The target in test [15] is Acetylcholinesterase (Torpedo californica, UniProt P04058). Nature of the test: Inhibition of pacific electric ray AChE. Set-up: species or system Tetronarce californica.
Sequence of Acetylcholinesterase (Torpedo californica, UniProt P04058) (P04058 whole entry): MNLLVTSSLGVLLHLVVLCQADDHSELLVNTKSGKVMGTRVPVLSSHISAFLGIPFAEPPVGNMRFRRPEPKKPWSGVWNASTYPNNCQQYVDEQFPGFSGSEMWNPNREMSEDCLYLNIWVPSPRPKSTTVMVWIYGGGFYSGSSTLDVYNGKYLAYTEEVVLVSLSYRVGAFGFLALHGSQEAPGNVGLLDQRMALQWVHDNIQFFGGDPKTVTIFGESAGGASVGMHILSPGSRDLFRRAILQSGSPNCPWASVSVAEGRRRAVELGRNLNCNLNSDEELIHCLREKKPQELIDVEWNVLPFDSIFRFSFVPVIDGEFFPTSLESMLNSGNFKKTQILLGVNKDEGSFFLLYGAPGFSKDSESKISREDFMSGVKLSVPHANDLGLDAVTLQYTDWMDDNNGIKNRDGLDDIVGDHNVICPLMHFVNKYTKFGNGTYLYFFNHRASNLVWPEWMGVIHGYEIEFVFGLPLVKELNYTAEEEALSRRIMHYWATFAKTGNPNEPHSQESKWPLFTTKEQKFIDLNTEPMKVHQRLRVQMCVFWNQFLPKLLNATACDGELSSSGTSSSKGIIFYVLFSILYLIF
The target of test [16] is T1, Amyloid-beta precursor protein. The test can be described thus: Inhibition of amyloid beta 42 (unknown origin) aggregation at 50 uM for 24 hrs by thioflavin T fluorescence method relative to control.
Test [17] deals with T6, Acetylcholinesterase. The test can be described thus: Inhibition of human recombinant AChE by spectrophotometer based Ellman's method.
Test [18] has as its target T1, Amyloid-beta precursor protein. Nature of the test: Inhibition of amyloid beta 1 to 42 (unknown origin) self aggregation at 50 uM for 24 hrs by ThT fluorometric assay relative to control.
The target in test [19] is T3, Cholinesterase. The test can be described thus: Inhibition of human […] BChE using BTC iodide as substrate preincubated for 5 mins followed by substrate addition measured Ellmans method.
The target in test [20] is T6, Acetylcholinesterase. The test can be described thus: Inhibition of human erythrocyte AChE using ATC iodide as substrate preincubated for 5 mins followed by substrate addition measured Ellmans method.
Test [21] has as its target T1, Amyloid-beta precursor protein. Nature of the test: Inhibition of amyloid beta 42 (unknown origin) aggregation at 50 uM by Thioflavin T-based fluorescence assay relative to control.
Test [22] deals with T6, Acetylcholinesterase. Nature of the test: Inhibition of human erythrocyte AChE using […] as substrate preincubated for 5 mins followed by substrate addition measured Ellmans method.
Test [23] concerns the target T6, Acetylcholinesterase. The test can be described thus: Inhibition of human AChE by Ellman's method.
Test [24] addresses T1, Amyloid-beta precursor protein. The test can be described thus: Inhibition of amyloid beta 42 (unknown origin) aggregation at 25 uM by Thioflavin T-based fluorescence assay relative to control.
Test [25] concerns the target T5, Cholinesterase. The test can be described thus: Inhibition of equine BChE by Ellman's method.
For test [26], the target named is T3, Cholinesterase. The test can be described thus: Inhibition of human recombinant BChE expressed in HEK293 cells using butyrylthiocholine as substrate incubated for 120 mins by Ellman's method.
The target in test [27] is T1, Amyloid-beta precursor protein. Nature of the test: Inhibition of amyloid beta 42 (unknown origin) aggregation at 1 mM for 12 hrs relative to control.
The target of test [28] is T6, Acetylcholinesterase. The test can be described thus: Inhibition of human recombinant AChE expressed in HEK293 cells using acetylthiocholine as substrate incubated for 120 mins by Ellman's method.
Test [29] concerns the target T1, Amyloid-beta precursor protein. The test can be described thus: Inhibition of amyloid beta 1 to 42 (unknown origin) CuCl2 induced aggregation at 40 uM by ThT fluorometric assay relative to control.

T1 sequence (P05067 whole entry): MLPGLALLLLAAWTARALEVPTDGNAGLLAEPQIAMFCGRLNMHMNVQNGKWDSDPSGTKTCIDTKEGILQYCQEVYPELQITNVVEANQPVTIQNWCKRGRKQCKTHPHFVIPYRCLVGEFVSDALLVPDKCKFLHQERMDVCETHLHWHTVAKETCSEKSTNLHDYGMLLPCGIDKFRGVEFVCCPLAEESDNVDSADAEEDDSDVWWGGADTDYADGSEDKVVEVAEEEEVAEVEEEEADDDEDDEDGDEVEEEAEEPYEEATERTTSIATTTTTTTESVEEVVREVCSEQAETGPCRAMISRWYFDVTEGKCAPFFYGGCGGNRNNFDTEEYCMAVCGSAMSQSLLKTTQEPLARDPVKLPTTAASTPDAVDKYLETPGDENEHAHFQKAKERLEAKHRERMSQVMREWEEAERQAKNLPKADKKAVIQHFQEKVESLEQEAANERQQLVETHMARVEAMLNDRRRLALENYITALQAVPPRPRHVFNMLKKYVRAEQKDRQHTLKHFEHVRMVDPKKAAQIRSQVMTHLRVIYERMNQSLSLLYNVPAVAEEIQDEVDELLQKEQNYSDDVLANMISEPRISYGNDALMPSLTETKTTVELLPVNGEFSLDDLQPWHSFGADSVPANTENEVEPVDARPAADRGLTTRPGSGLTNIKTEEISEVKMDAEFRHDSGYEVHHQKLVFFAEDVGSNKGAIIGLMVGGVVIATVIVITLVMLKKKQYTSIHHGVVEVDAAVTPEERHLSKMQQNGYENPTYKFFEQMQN
Sequence of Microtubule-associated protein tau (Homo sapiens) (P10636 whole entry): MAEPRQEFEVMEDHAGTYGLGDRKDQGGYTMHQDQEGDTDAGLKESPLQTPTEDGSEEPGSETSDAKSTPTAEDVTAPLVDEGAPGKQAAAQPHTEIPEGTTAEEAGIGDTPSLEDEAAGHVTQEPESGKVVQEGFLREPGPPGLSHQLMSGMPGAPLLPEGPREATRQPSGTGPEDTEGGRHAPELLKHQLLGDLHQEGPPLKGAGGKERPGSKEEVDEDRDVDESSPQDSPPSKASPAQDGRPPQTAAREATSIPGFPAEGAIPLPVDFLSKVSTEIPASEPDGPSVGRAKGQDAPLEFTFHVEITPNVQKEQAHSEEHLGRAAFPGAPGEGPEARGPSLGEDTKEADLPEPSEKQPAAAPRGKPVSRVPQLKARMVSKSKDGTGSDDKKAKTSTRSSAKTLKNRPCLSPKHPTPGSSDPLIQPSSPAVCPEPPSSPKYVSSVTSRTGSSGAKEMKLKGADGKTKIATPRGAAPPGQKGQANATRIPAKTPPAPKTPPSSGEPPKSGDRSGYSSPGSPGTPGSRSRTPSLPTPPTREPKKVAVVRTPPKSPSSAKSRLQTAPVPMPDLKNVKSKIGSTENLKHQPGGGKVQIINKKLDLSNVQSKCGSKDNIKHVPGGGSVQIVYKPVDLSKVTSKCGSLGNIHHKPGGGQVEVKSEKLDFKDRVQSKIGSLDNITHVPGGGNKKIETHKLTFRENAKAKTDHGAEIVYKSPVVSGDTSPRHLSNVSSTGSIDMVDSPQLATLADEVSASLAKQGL
T4 sequence (P56817 whole entry): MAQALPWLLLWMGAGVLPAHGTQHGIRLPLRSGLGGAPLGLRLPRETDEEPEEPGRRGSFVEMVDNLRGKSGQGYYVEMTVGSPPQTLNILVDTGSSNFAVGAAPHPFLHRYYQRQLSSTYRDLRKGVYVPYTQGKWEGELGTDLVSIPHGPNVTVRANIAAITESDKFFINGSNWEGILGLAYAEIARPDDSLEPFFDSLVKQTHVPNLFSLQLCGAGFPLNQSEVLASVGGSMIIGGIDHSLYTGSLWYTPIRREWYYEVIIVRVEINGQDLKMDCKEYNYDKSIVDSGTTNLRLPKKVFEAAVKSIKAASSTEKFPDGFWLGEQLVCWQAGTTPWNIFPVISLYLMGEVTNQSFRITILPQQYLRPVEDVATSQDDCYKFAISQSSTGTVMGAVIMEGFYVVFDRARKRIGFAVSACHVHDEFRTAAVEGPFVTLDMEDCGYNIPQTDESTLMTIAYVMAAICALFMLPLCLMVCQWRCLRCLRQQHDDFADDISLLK

Turning to `CCN(CCCCCCOc1ccc(/C=C/C(=O)c2c(O)cc(OC)c(O)c2OC)cc1)Cc1ccccc1OC`, the inhibition in [1] was 78%. Moreover, the midpoint of inhibition in test [2], the IC50, lay at 410 nM.

`N=c1oc2ccccc2cc1C(=O)Nc1cc(Br)ccc1N1CCN(Cc2ccc(F)cc2)CC1`: the IC50 in [3] stood at 10.5 µM; in [4] it was 6.31 µM.

As for `O=C(NC1CCN(Cc2ccccc2)CC1)c1cc(-c2cccc([N+](=O)[O-])c2)on1`, the inhibition in test [5] stood at 24.3%. Further, the figures for the IC50 in test [6] and in [7] were 15.2 µM and 16.1 µM, respectively.

`CN(C)/C=C/C(=O)c1cc2ccc(OCc3cn(Cc4ccc(F)c(F)c4)nn3)cc2oc1=O` had an inhibition in test [8] of 32.6%. The compound also yielded a half-inhibitory concentration (IC50) in test [6] of 21.7 µM.

In the case of `Clc1ccc2c(NCCCCCN3c4ccccc4Sc4ccccc43)c3c(nc2c1)CCCC3`, the values for the half-inhibitory concentration (IC50) in test [3] and in [11] were 0.19 µM and 8 nM, respectively. The inhibition was determined as 74.1% in [9] and 50.5% in [10].

Turning to `S=C(NCCCCNc1c2c(nc3ccccc13)CCCC2)Nc1c[nH]c2ccccc12`, the IC50 in test [3] is 0.076 µM; in test [11] it was 25 nM.

Take `O=C(CCCN(Cc1ccccn1)Cc1ccccn1)NCCCNc1c2c(nc3ccccc13)CCCC2`: the inhibition in test [12] was found to be 71.1%.

Consider `COC(=O)c1cc(C(=O)c2ccc(OC)cc2)n2ccc(CCCc3cc[n+](C)cc3)cc12`, for which the IC50 is 38.9 µM in test [3] and 3300 nM in test [11]. For the same compound, the inhibition in test [13] came to 55%.

Compound `COc1cccc2cc(C(=O)NCCCNc3c4c(nc5cc(Cl)ccc35)CCCC4)oc12` showed an inhibition in test [14] of 57.8%. Besides, the half-maximal inhibitory concentration (IC50) in test [15] was found to be 130 nM.

Take `CC1=C(NC2CCN(Cc3ccccc3)CC2)C(=O)c2ccccc2C1=O`: the inhibition in test [16] is 52%. Further, the IC50 in test [17] turned out to be 47.5 µM.

For `CCOC(=O)C1=C(C)N(CCC2CCN(Cc3ccccc3)CC2)C(=O)NC1c1coc2c(Cl)cc(Cl)cc2c1=O` (stereo unspecified), the results for the inhibition in test [10] and in [18] were 73.7% and 63.6%, respectively. Moreover, the values for the half-inhibitory concentration (IC50) in test [19] and in test [20] were 17.3 µM and 60 nM, respectively.

In test [21], `O=c1nc2sc3ccccc3n2c2ncccc12` had an inhibition of 30.8%. Moreover, the midpoint of inhibition in [22], the IC50, lay at 2780 nM.

`c1cc2[nH]c3nc(NCCCCCCN4CCCC4)nnc3c2cc1N1CCCCC1`: the half-inhibitory concentration (IC50) was determined as 320 nM in test [23] and 210 nM in [25]. This compound also returned an inhibition in test [24] of 54.3%.

Turning to `O=C(C[n+]1ccc2ccccc2c1)Nc1ccccc1Br`, the IC50 in test [26] came to 12 µM; in [28], 13 µM. The compound further gave an inhibition in [27] of 18%.

`CC(C)C1NC(=O)C=C1NCCN1CCN(Cc2ccccc2)CC1` (stereo unspecified) gave an inhibition in test [29] of 78.4%.

As a reminder, the inhibition is the change of the read-out against control, counted positive when it falls. Low values mean a weak effect, high ones a strong effect. What is called IC50 is the concentration needed to halve the response being measured.
